“Also recorded” adds a separate entry of the source.
Legend:
[1] = target: GCP II (Homo sapiens, UniProt Q04609); assay: NAAG cleavage assay with or without 2-PMPA; assay type: biochemical; conditions: 20 μM [3H]NAAG, 20 nM 2-PMPA, 1 hr at 37° C.; FIG. 1b
Protocol: The activity of endogenous or over-expressed Glutamate carboxypeptidase II protein (GCP II) was measured as follows. Cell lysate (50 μg) was incubated with 20 μM of N-acetyl-L-aspartyl-L-[3,4-3H] glutamate (NAAG; NEN corporation) with or without 20 nM 2-PMPA, a GCP II specific inhibitor, in a total volume of 100 μl containing 50 mM HEPES and 150 mM NaCl for 1 hr at 37° C. Upon completion of the reaction, sample mixture was loaded on AG 1-X8 anion-exchange resin (Biorad) prepared in 96 well columns, followed by centrifugation at 2000 rpm for 5 min. The resin bound with the sample mixture was eluted with 0.5 mM formate (100 ml) and centrifuged at 2000 rpm for 5 min. All the eluted samples were mixed with 1 ml of scintillation solution (Optiphase HiSafe; Wallac) and then radioactivity was measured by scintillation counter (Wallac Inc.).

[2] = target: T1, lentiviral GCP II (Homo sapiens, UniProt Q04609); assay type: cell-based
T1 construct: host or cells: rat primary astrocytes (lentiviral infection)

[3] = target: recombinant human GCPII (rhGCP II) (Homo sapiens, UniProt Q04609); assay: Effect of 2-PMPA on Aβ1-40 cleavage of rhGCP II (ELISA); assay type: biochemical; conditions: 2-PMPA added at different concentrations, FIG. 1a
Protocol: Vectors encoding the hGCP II and various mutant hGCP II genes were transfected into PC3 cells in a 12-well plate. About 30 hr later, the culture medium was changed with fresh one treated with Aβ1-40 of Aβ1-42 peptide in the presence or absence of 2-PMPA, and the cells were incubated for another 8 hr. The medium was collected and assayed for residual Aβ1-40 or Aβ1-42 using ELISA kits (Invitrogen) following manufacturer's protocol. Cells transfected with the empty pcDNA3 empty vector were used as the negative control.

[4] = test system: Aβ1-40 and Aβ1-42; assay: Aβ1-40 and Aβ1-42 levels in cortical membrane fractions of 2-PMPA treated APP Swedish/PS1ΔE9 transgenic mice (ELISA); assay type: in vivo, mouse; conditions: 10 mg/kg intraperitoneally, 2×/wk for 1 month, 8-month old APP Swedish/PS1ΔE9 mice, FIG. 1e
Protocol: (§1) (a, b) rhGCP II was incubated with Aβ40 or NAAG with or without 2-PMPA or EDTA. A(340 or NAAG level was detected by ELISA or NAAG cleavage assay. (c) After lentiviral GCP II was infected into rat primary astrocytes, monomeric Aβ40 was treated to cells. And 2-PMPA was treated thereto at various doses. The Aβ40 concentration in cell growth medium was measured by ELISA assay. (d, e) Eight-month old APP Swedish/PS1E9 transgenic mice were injected intraperitoneally with 10 mg/kg of 2-PMPA or PBS 2/wk for 1 month (9 times). Membrane fractions were analyzed by NAAG and ELISA assay.
(§2) Vectors encoding the hGCP II and various mutant hGCP II genes were transfected into PC3 cells in a 12-well plate. About 30 hr later, the culture medium was changed with fresh one treated with Aβ1-40 of Aβ1-42 peptide in the presence or absence of 2-PMPA, and the cells were incubated for another 8 hr. […]
To investigate the effect of 2-PMPA in the mouse brain, 8-month old APP Swedish/PS1Δ9 mice transfected by the same manner as described in Example <1-6> were treated nine times with 2-PMPA (10 mg/kg, intraperitoneally, 2/wk for 1 month) or the same amount of PBS. Aβp1-40 and Aβ1-42 levels in the cortical membrane fractions were analyzed by the same manner as described in Example <1-3>. NAAG cleavage activity of GCP II was measured by the same manner as described in Example <1-4>.

[5] = test system: Aβ; assay: Cleavage of exogenously treated Aβ in culture medium of transfected cells, ELISA; assay type: cell-based; conditions: 1 ng/ml Aβ one day after transfection, 8 hr at 37° C., FIG. 4c
Protocol: (§3) To identify Aβ clearance activity of GCP II mutants, various mutant plasmids were transfected in PC3 cells known not to express endogenous GCP II. After 48 hr, the cell lysates were mixed with Aβ (2 μM) and incubated for overnight. The remaining Aβ peptides were detected by dot blotting and western blotting using 6E10 antibody. […] The inventors of the present invention also measured cleavage activity of GCP II on exogenously treated Aβ peptides in culture medium by ELISA. One day after transfection, 1 ng/ml Aβ was treated into the medium, followed by incubation for 8 hr at 37° C. Similarly with western blotting, residual Aβ was reduced by K699S but not by G548P (see FIG. 4c).
as §2, with “hr. The medium was collected and assayed for residual Aβ1-40 or Aβ1-42 using ELISA kits (Invitrogen) following manufacturer's protocol. Cells transfected with the empty pcDNA3 empty vector were used as the negative control.” for “hr.”

[6] = test system: Aβ; assay: Aβ clearance activity of GCP II mutants, lysate of transfected PC3 cells, dot blotting and western blotting (6E10); assay type: biochemical; conditions: cell lysate 48 hr after transfection, Aβ 2 μM, overnight, FIGS. 4a, 4b
Protocol: as §3
48 hrs later, the cell lysate was mixed with Aβ (2 μM) and incubated for overnight.
To quantify the remaining Aβ peptides, the mixture of cell lysate and Aβ (2 μM) proceeded to dot blotting and the result was analyzed by the same manner as described in Example <2-2>. 1 μl of the mixture of cell lysate and Aβ (2 μM) was dropped on nitrocellulose membrane, which was then completely dried. The dried membrane proceeded to blocking with TBS-T containing 5% nonfat dry milk at room temperature for 1 hr. Then, the membrane was incubated with anti-Aβ antibody, 6E10 (SIGNET; SIG-39300, 1:2000) in 5% nonfat dry milk at 4° C. for overnight. […] After washing three times, proteins were detected using chemiluminescent substrate.

[7] = NAAG hydrolysis by GCP II mutants, lysate of transfected H4 cells; assay type: biochemical; conditions: H4 cell lysate, [3H]-labeled NAAG 20 μM, FIG. 3a
Protocol: The inventors of the present invention also investigated the changes of enzyme activity of GCP II mutant. To analyze enzyme activity of various mutants, mutant proteins with a substitution in the S1′ pocket (R210A, K699S) or S1 pocket (R536L, G548P) were transfected in H4 cells. To measure NAAG hydrolysis, cell lysate was incubated with [H]^3-labeled NAAG (20 μM) and GCP II specific […]. […] Additionally, to examine the effect of Aβ on NAAG cleavage of GCP II, rhGCP II was incubated with [H]^3-labeled NAAG (20 μM) and Aβ peptides at the same time. As a result, NAAG cleavage activity of GCP II was not affected by Aβ peptide (see FIG. 3b).
The activity of endogenous or over-expressed Glutamate carboxypeptidase II protein (GCP II) was measured as follows. Cell lysate (50 μg) was incubated with 20 μM of N-acetyl-L-aspartyl-L-[3,4-3H] glutamate (NAAG; NEN corporation) with or without 20 nM 2-PMPA, a GCP II specific inhibitor, in a total volume of 100 μl containing 50 mM HEPES and 150 mM NaCl for 1 hr at 37° C. Upon completion of the reaction, sample mixture was loaded on AG 1-X8 anion-exchange resin (Biorad) prepared in 96 well columns, followed by centrifugation at 2000 rpm for 5 min. […] All the eluted samples were mixed with 1 ml of scintillation solution (Optiphase HiSafe; Wallac) and then radioactivity was measured by scintillation counter (Wallac Inc.). […]

[8] = test system: Aβ1-40; assay: Aβ1-40 cleavage by rhGCP II, residual Aβ by ELISA; assay type: biochemical; conditions: rhGCP II incubated with Aβ1-40, FIG. 1a
Protocol: as §1
As a result, rhGCP II cleaved Aβ1-40 peptides about 80 percent compared with the control, but 2-PMPA had no effect on Aβ1-40 cleavage of GCP II (see FIG. 1a). […] To investigate the effect of 2-PMPA in the mouse brain, 2-PMPA was treated into transgenic AD model mice. The inventors of the present invention used 2-PMPA (10 mg/kg, intraperitoneally, 2×/wk for 1 month) to treat 8-month old APP Swedish/PS1Δ9 transgenic mice. Aβ1-40 and Aβ1-42 levels in the cortical membrane fractions were analyzed by ELISA and NAAG cleavage activity of GCP II was measured by NAAG assay. As a result, cleavage of NAAG was reduced about 90 percent in 2-PMPA treated mouse compared with PBS control (see FIG. 1d). However, total levels of Aβ1-40 and Aβ1-42 were not changed by the treatment of 2-PMPA (see FIG. 1e). […]

T1 sequence (Q04609 whole entry): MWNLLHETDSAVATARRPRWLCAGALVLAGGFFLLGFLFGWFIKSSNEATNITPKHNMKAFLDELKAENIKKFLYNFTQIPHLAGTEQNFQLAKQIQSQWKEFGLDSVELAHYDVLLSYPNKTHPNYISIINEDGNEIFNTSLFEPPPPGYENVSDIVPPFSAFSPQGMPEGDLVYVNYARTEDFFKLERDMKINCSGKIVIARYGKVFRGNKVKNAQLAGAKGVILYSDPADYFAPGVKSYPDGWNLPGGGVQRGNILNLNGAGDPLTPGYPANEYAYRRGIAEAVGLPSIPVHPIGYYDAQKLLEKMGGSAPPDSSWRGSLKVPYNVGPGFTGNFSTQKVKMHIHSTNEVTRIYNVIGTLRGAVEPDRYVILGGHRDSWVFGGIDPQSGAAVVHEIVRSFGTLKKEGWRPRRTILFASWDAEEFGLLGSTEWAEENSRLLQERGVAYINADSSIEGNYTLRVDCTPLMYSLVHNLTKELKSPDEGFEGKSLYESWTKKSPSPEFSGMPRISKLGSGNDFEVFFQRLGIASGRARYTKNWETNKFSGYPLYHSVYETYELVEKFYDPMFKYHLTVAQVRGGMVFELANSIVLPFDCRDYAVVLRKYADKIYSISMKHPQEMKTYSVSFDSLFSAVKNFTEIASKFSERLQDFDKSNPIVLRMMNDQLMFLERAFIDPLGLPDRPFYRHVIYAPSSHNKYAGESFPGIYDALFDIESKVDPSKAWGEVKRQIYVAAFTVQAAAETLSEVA
recombinant human GCPII (rhGCP II), sequence (Q04609 whole entry): as above
GCP II, sequence (Q04609 whole entry): as above

## O=C(O)CCC(CP(=O)(O)O)C(=O)O (stereo not drawn) [2-PMPA, 2-(Phosphonomethyl) pentanedioic acid]
[1]
  hydrolysis of NAAG by GCP II: completely blocked
[2]
  Aβ1-40 cleavage of lentiviral GCP II: did not block
[3]
  effect on Aβ1-40 cleavage of rhGCP II: no effect
[4]
  total level of Aβ1-40: not changed
  total level of Aβ1-42: not changed

## G548P: GCP II mutant protein with a substitution in the S1 pocket
[5]
  residual Aβ in culture medium: not
[6]
  Aβ cleavage activity compared with wild type: lost Aβ cleavage activity; also recorded: did not; also recorded: lost its Aβ clearance activity
[7]; listed as R548P
  activity of NAAG hydrolysis maintained compared with wild type GCP II: about 40%

## K699S: GCP II mutant: 699th amino acid Lysine replaced with Serine, SEQ ID. NO: 2; S1′ pocket mutant
[5]
  residual Aβ in culture medium: reduced
[6]
  Aβ cleavage activity compared with wild type: higher Aβ cleavage activity than the wild type; also recorded: cleaved; also recorded: cleaved Aβ more than wild type
[7]
  activity of NAAG hydrolysis (in words): completely lost; also recorded: did not cleave

## rhGCP II: recombinant human GCPII (glutamate carboxypeptidase II), wild type
[8]
  Aβ1-40 peptide cleaved compared with control: about 80%
